One assay addresses Dihydrofolate reductase (Lactobacillus casei, UniProt P00381). Nature of the assay: Inhibitory activity against dihydrofolate reductase of Lactobacillus casei. Also on record: species or system Lacticaseibacillus casei.
Assay [1] relates to Lacticaseibacillus casei. Nature of the assay: Tested for growth inhibition of Lactobacillus casei (MTX resistant). It counts as functional, organism-based.
In assay [2] the test system is Lacticaseibacillus casei. Description: Tested for growth inhibition of Lactobacillus casei (ATCC […]). It is filed as functional, organism-based.
The next assay deals with L1210. Description: Tested for growth inhibition of L1210 leukemia cells. It counts as functional, cell-based. The conditions noted are these: Mus musculus.
The test system of assay [3] is Enterococcus faecium. Nature of the assay: Tested for growth inhibition of Streptococcus faecium (ATCC 8043). It counts as functional, organism-based.
In assay [4] the test system is Enterococcus faecium. Description: Tested for growth inhibition of Streptococcus faecium (MTX resistant). It is filed as functional, organism-based.
Assay [5] addresses T1, Thymidylate synthase (Lactobacillus casei, UniProt P00469).
T1 sequence (P00469 whole entry): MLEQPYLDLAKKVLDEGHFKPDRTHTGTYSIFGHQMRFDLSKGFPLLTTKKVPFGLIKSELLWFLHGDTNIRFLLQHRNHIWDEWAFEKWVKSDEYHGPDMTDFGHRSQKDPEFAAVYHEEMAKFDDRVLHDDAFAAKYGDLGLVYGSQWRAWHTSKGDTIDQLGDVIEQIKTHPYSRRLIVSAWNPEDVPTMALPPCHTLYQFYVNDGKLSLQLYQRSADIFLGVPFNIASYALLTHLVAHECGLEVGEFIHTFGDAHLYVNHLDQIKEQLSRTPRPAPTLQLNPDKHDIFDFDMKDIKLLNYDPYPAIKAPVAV
Description: Inhibitory activity against thymidylate synthase of Lactobacillus casei. Also noted: species or system Lacticaseibacillus casei.

Assay [6] concerns the target Thymidylate synthase (Escherichia coli, UniProt C3SWJ7). Description: Inhibitory activity against thymidylate synthase of Escherichia coli.

7 compounds from ChEMBL document CHEMBL1124247, “Synthesis and biological evaluation of 8-deazahomofolic acid and its tetrahydro derivative” (J Med Chem, 1988) can be followed below.

A value given as a limit tells only on which side of the number the result lay.

Broadly, the IC50 is the concentration at which inhibition is half-maximal. A low value points to higher potency.

Sequence of Dihydrofolate reductase (P00381 whole entry): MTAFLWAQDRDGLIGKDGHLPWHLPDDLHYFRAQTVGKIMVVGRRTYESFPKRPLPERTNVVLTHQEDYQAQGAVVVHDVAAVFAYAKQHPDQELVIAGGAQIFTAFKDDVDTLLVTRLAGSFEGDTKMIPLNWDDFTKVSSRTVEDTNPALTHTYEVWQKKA
Sequence of Thymidylate synthase (Escherichia coli, UniProt C3SWJ7) (C3SWJ7 whole entry): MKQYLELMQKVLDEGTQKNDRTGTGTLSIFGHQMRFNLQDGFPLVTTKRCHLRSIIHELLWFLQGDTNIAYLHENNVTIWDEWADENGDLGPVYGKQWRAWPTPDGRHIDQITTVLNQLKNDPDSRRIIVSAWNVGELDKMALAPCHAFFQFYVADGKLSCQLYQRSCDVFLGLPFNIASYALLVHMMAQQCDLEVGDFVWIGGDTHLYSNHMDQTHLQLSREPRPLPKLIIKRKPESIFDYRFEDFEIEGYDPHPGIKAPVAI

Regarding `Nc1nc2c(c(=O)[nH]1)NC(CCNc1ccc(C(=O)NC(CCC(=O)O)C(=O)O)cc1)CC2` (stereo unspecified), the IC50 was 230000 nM on Dihydrofolate reductase; over 100000 nM with Lacticaseibacillus casei [1]; 35 nM with Lacticaseibacillus casei [2]; 35700 nM in the assay with L1210; 15 nM with Enterococcus faecium [3]; over 100000 nM in the assay on Enterococcus faecium [4]. The IC50 against Thymidylate synthase [5] came to 340000 nM.
Consider `Nc1nc(O)c2nc(CCNc3ccc(C(=O)NC(CCC(=O)O)C(=O)O)cc3)cnc2n1` (stereo unspecified), for which the half-maximal inhibitory concentration (IC50) in the assay with Lacticaseibacillus casei [2] was 220 nM; with Enterococcus faecium [3] it was 2200 nM.
On to `Nc1nc(O)c2nc(CNc3ccc(C(=O)NC(CCC(=O)O)C(=O)O)cc3)ccc2n1` (stereo unspecified), for which the IC50 against Dihydrofolate reductase came to 12000 nM; in the assay with Lacticaseibacillus casei [1] it was 2040 nM; in the assay on Lacticaseibacillus casei [2], 1.4 nM; in the assay on L1210, 1330 nM; in the assay on Enterococcus faecium [3] it was 0.3 nM; in the assay on Enterococcus faecium [4], 294 nM. This compound also had an IC50 on Thymidylate synthase [5] of 14000 nM.
`Nc1nc(O)c2c(n1)CCC(CNc1ccc(C(=O)NC(CCC(=O)O)C(=O)O)cc1)N2` (stereo unspecified): the IC50 against Dihydrofolate reductase is 55000 nM; in the assay on Lacticaseibacillus casei [1] it was over 4000 nM; with Lacticaseibacillus casei [2] it was 2.7 nM; in the assay with Enterococcus faecium [3], 1.6 nM; in the assay with Enterococcus faecium [4], 1040 nM; on Thymidylate synthase [5], 75000 nM.
Consider `Nc1nc(O)c2nc(CCNc3ccc(C(=O)NC(CCC(=O)O)C(=O)O)cc3)ccc2n1` (stereo unspecified), for which the IC50 against Dihydrofolate reductase was 220000 nM; in the assay with Lacticaseibacillus casei [1] it was 330 nM; in the assay on Lacticaseibacillus casei [2], 19 nM; in the assay with L1210 it was 87000 nM; in the assay with Enterococcus faecium [3], 21 nM; in the assay on Enterococcus faecium [4], 1100 nM. On Thymidylate synthase [5], this compound gave an IC50 of 160000 nM.
For the compound `Nc1nc(O)c2c(n1)NCC(CCNc1ccc(C(=O)NC(CCC(=O)O)C(=O)O)cc1)N2` (stereo unspecified), the results for the IC50 in the assay on Lacticaseibacillus casei [2], in the assay on Enterococcus faecium [3] and at Thymidylate synthase [6] were 13 nM, 1.5 nM and 2000 nM, respectively.
Turning to `CN(Cc1cnc2nc(N)nc(N)c2n1)c1ccc(C(=O)N[C@@H](CCC(=O)O)C(=O)O)cc1` [METHOTREXATE], the IC50 in the assay with Lacticaseibacillus casei [2] was 0.05 nM; in the assay with L1210, 3.9 nM; in the assay with Enterococcus faecium [3], 0.8 nM; with Enterococcus faecium [4], 8000 nM.
